In article PMC12648368 (British Journal of Clinical Pharmacology, 2025):
“Also recorded” adds a separate entry of the source. Where two headings read alike, the source gives them in different places. Each block holds one molecule with its values, some of them ahead of it.

Experiments:
plasma proteins = conditions: cited from earlier work
[1] = Effect-compartment model of intracellular PBMC concentrations, DERIVE study; type: in vivo, human; conditions: for Equilibration half‐life, t 1/2 (plasma to PBMC) / half-life / Kp: PBMC effect compartment, estimate (95% CI); for half-life / Kp: human, oral; for half-life: PBMC, read-out: Equilibration half‐life, t 1/2 (plasma to PBMC) (converted); for Kp: read-out: Pseudo‐partition coefficient, PPC (ratio of drug in PBMC to plasma)
Description: Pharmacokinetic sampling was conducted over four visits. […] The rifampicin dose was increased to 1200 mg once daily (QD) for 1 week. […] Dolutegravir was maintained for an additional 2 weeks. […] Blood samples were centrifuged and stored at -80 °C prior to shipment and assay at the University of Cape Town, where drug concentrations were measured using high-performance liquid chromatography with tandem mass spectrometry (HPLC MS/MS). […] Atazanavir and ritonavir pharmacokinetic models were separately developed using […] data. We tested one- and two-compartment disposition models with linear elimination, and delayed absorption modelled by a lag time or series of transit compartments. PBMC concentrations were modelled using a hypothetical effect compartment connected to the central compartment of the plasma model. An equilibration half-life (t1/2) and a pseudopartition coefficient (PPC) were used to parameterize the rate of drug entry into the PBMC compartment and its accumulation ratio between the PBMC and plasma, respectively (Figure S1).

[2] = Final atazanavir model applied to atazanavir-only data (without ritonavir) of the ACTG A5231 study
Description: Atazanavir was administered with or without rifampicin in three periods: 300 mg BID for 8 days (period 1), 300 mg BID with rifampicin 600 mg QD for 11 days (period 2) and 400 mg BID with rifampicin 600 mg QD for 8 days (period 3).[30] Pharmacokinetic sampling was conducted at the end of each period, with blood collected 15 min predose and at 1‐, 2‐, 3‐, 4‐, 5‐, 6‐, 8‐, 10‐, 12‐, and 24‐h postdose. Plasma samples were analysed at the University of Alabama using HPLC with UV detection (LLOQ 0.025 mg/L).[30]
The final atazanavir model, developed with DERIVE data, was applied to the A5231 dataset. We made the following adjustment to our model to account for the differences between the two studies.
All fixed parameters are estimates from DERIVE study population.

HIV‐1 = conditions: against HIV‐1; cited from earlier work
[3] = Population pharmacokinetic model of plasma atazanavir and ritonavir concentrations, DERIVE study (ATV/r with or without rifampicin); conditions: for Fold‐change in CL for ATV/r BID + RIF: ATV/r 300/100 mg BID with rifampicin; for Vd / bioavailability / clearance: human, plasma, oral; for Fold‐change in CL for ATV/r QD + RIF: rifampicin 600 mg QD added to ATV/r; for Effect of increasing rifampicin dose on clearance, bioavailability / pharmacokinetics: rifampicin 1200 mg QD vs 600 mg QD, ATV/r BID
[4] = in vivo; cited from earlier work
clinical = conditions: human, in vivo
[5] = design: method as in earlier work; conditions: fixed in the previously published model; cited from earlier work
[6] = estimate (95% CI), listed as atazanavir
[7] = Inter compartmental clearance, typical participant 67 kg, fat‐free mass 42 kg, estimate (95% CI)
[8] = typical participant 67 kg, fat‐free mass 42 kg, estimate (95% CI)

Compound: COC(=O)N[C@H](C(=O)N[C@@H](Cc1ccccc1)[C@@H](O)CN(Cc1ccc(-c2ccccn2)cc1)NC(=O)[C@@H](NC(=O)OC)C(C)(C)C)C(C)(C)C [Atazanavir, atazanavir]
Bound to plasma proteins (plasma proteins): about 86%
Equilibration half‐life, t 1/2 (plasma to PBMC) [1]: 0.963 (0.546‐1.51) h
Effect of rifampicin on PBMC equilibration t 1/2 and PPC (intracellular accumulation) ([1]; addition of rifampicin to the regimen): did not affect the ratio of atazanavir concentration between PBMCs and plasma; also recorded: neither of which were affected; also recorded: does not affect the intracellular accumulation of atazanavir
half-life [1]: ~60 min
Kp [1]: 0.653
Fold-change in CL due to absence of ritonavir ([2]; A5231 all PK visits vs ATV/r without rifampicin (DERIVE visit 1), estimate (95% CI)): 2.13 (1.88 – 2.34) -fold
BOV in F ([2]; human, in vivo): 58.3 (46.4 – 73.5) % CV
BOV in MTT ([2]; human, in vivo): 48.1 (36.9 – 63.4) % CV
Between occasion variability (BOV) in k a ([2]; human, in vivo): 101 (fixed) % CV
Between subject variability in clearance ([2]; human, in vivo): 18.8 (13.7 – 24.4) % CV
Change in F with rifampicin ([2]; human, in vivo): -55.3 (-64.0 – -46.2) %
Change in ka with rifampicin ([2]; human, in vivo): -70.8 (fixed) %
Clearance, CL ([2]; human, in vivo): 7.55 (fixed) L/h
MTT longer in A5231 compared to DERIVE ([2]; human, in vivo): 2.5 ‐fold
Mean absorption transit time, MTT ([2]; human, in vivo): 1.38 (1.15 – 1.61) h
Reduction in bioavailability when rifampicin was coadministered ([2]; human, in vivo): 55%
Transit compartments, NN ([2]; human, in vivo): 10 (fixed) n
Vd ([2]; human, in vivo): 77.3 L
Volume of distribution (peripheral compartment) ([2]; human, in vivo): 48.9 (fixed) L
bioavailability ([2]; human, in vivo): 100%
clearance ([2]; human, in vivo): 58.5 mL/min
Protein‐adjusted in vitro 90% inhibitory concentration (PA‐IC90) (HIV‐1): 0.014 mg/L
Fold‐change in CL for ATV/r BID + RIF ([3]; estimate (95% CI)): 2.03 (1.82‐2.25) ‐fold
Fold‐change in CL for ATV/r BID + RIF [3, 6]: 2 ‐fold
Clearance, CL ([3]; ATV/r 300/100 mg QD without rifampicin, typical participant 67 kg, fat‐free mass 42 kg, typical estimate (95% CI)): 7.57 (6.42‐9.06) L/h
Effect of doubling ATV/r dosing frequency on bioavailability ([3]; ATV/r BID with standard dose rifampicin): restored atazanavir bioavailability
Effect of TDF on clearance and bioavailability ([3]; co-medication tenofovir disoproxil fumarate): affected neither
BOV in F ([3]; estimate (95% CI)): 48.2 (40.7‐53.6) % CV
BOV in MTT ([3]; estimate (95% CI)): 59.4 (49.3‐73.6) % CV
Between occasion variability (BOV) in k a ([3]; estimate (95% CI)): 97.9 (80.8‐125) % CV
Between subject variability in clearance ([3]; estimate (95% CI)): 27.6 (19.7‐36.7) % CV
Between visit variability in clearance ([3]; estimate (95% CI)): 17.5 (14.4‐24.5) % CV
Change in F for ATV/r QD + RIF ([3]; estimate (95% CI)): −52.5 (−62.5 −41.4) %
Change in k a due to RIF ([3]; estimate (95% CI)): −67.3 (−76.2 −53.2) %
Mean absorption transit time, MTT ([3]; estimate (95% CI)): 0.499 (0.429‐0.574) h
Transit compartments, NN ([3]; fixed in the model): 10 Fixed n
Vd [3]: 77.5 L
bioavailability [3]: 100%
clearance [3, 7]: 52.2 mL/min
Fold‐change in CL for ATV/r QD + RIF ([3]; estimate (95% CI)): 3.05 (2.67‐3.45) ‐fold
Fold‐change in CL for ATV/r QD + RIF [3, 6]: 3 ‐fold
Effect of increasing rifampicin dose on clearance, bioavailability / pharmacokinetics [3]: no significant effect
Reduction of bioavailability by rifampicin ([3]; rifampicin added to standard ATV/r QD regimen): 53%
Volume of distribution (peripheral compartment) [3, 8]: 42.1(26.6‐79.0) L

Equilibration half‐life, t 1/2 (plasma to PBMC) [1]: 1.40 (1.38‐1.63) h
half-life [1]: ~60 min
Kp [1]: 1.68
Bioavailability decreased to, with rifampicin ([3]; ATV/r QD + rifampicin, relative to ATV/r without rifampicin): 31%
BOV in F ([3]; estimate (95% CI)): 55.5 (48.1‐63.8) % CV
BOV in MTT ([3]; estimate (95% CI)): 43.6 (37.7‐51.6) % CV
Between occasion variability (BOV) in k a ([3]; estimate (95% CI)): 82.3 (67.3‐99.1) % CV
Between subject variability in clearance ([3]; estimate (95% CI)): 16.4 (12.3‐21.8) % CV
Change in F for ATV/r BID + RIF ([3]; estimate (95% CI)): −33.3 (−46.6 −10.9) %
Change in F for ATV/r QD + RIF ([3]; estimate (95% CI)): −68.8 (−75.2 −58.5) %
Mean absorption transit time, MTT ([3]; estimate (95% CI)): 0.483 (0.428‐0.545) h
Transit compartments, NN ([3]; estimate (95% CI)): 12.3 (6.64‐17.7) n
Vd [3]: 55.4 L
bioavailability [3]: 100%
clearance ([3]; Clearance, CL, ATV/r 300/100 mg QD without rifampicin, typical participant 67 kg, fat‐free mass 42 kg, typical estimate (95% CI)): 161 mL/min
clearance [3, 7]: 26 mL/min
Effect of increasing rifampicin dose on clearance, bioavailability / pharmacokinetics [3]: no further effect
Volume of distribution (peripheral compartment) [3, 8]: 70.1 (39.7‐125) L
Compound: CC(C)c1nc(CN(C)C(=O)N[C@H](C(=O)N[C@@H](Cc2ccccc2)C[C@H](O)[C@H](Cc2ccccc2)NC(=O)OCc2cncs2)C(C)C)cs1 [Ritonavir, ritonavir]
Time to steady‐state concentrations [4]: about 2 weeks

Compound: CO[C@H]1/C=C/O[C@@]2(C)Oc3c(C)c(O)c4c(O)c(c(/C=N/N5CCN(C)CC5)c(O)c4c3C2=O)NC(=O)/C(C)=C\C=C\[C@H](C)[C@H](O)[C@@H](C)[C@@H](O)[C@@H](C)[C@H](OC(C)=O)[C@@H]1C [rifampicin]
Km (clinical): 4.9 µg/mL
Vd (clinical): 44.7 L
clearance (clinical): 550 mL/min
BOV in MTT (estimate (95% CI)): 46.8 (40.0 – 56.8) % CV
BOV in ka (estimate (95% CI)): 104 (85.3 – 136) % CV
Between occasion variability (BOV) in F (estimate (95% CI)): 22.0 (17.9 – 26.3) % CV
Between subject variability in clearance (estimate (95% CI)): 27.7 (22.1 – 35.2) % CV
Mean absorption transit time, MTT (estimate (95% CI)): 0.502 (0.447 – 0.558) h
Transit compartments, NN (estimate (95% CI)): 20.3 (15.8 – 25.9) n
Bioavailability, F (human, in vivo): 1 (fixed) fraction
Unbound fraction of rifampicin, fu [5]: 0.2 (fixed) fraction
